This is an account of results in PubChem BioAssay AID1259407 (Chemical Carcinogenesis Research Information System (CCRIS), 2018).

Active and inactive are the calls of the source. How the calls were made is not given here.

For the data set, the system named is CCRIS mutagenicity, Ames/micronucleus/aberration tests. In words: CCRIS mutagenicity studies. The following applies: Test System: CHINESE HAMSTER V-79, Strain/Indicator: V-79/6-THIOGUANINE, Method: STANDARD PLATE.

As for `COc1cc(Cl)c(Cl)c(Cl)c1O`, the mutagenic call runs as follows: (Metabolic Activation: NONE) “active; positive”; (Metabolic Activation: PRIMARY RAT HEPATOCYTES) “inactive; negative”.
